# Source: patent US20250387422A1, “FORMULATION OF AN AMPHOTERICIN B HYBRID AMIDE DERIVATIVE IN DSGPEG2K MICELLES” (The Board of Trustees of the University of Illinois, priority 2022, published 2025)
# Entries after “also recorded” stand apart in the source; their conditions may differ.
# Assays:
# Format in all cases: physicochemical
# [1] = Solution stability of AM-2-19 in IV-compatible solvents (FIG. 1); settings: IV-compatible solvents such as 5% dextrose in water (D5W)
# [2] = In vitro plasma compatibility of AM-2-19 in human plasma
# Excerpt: The in vitro plasma compatibility of AM-2-19 in human plasma is represented below: […]
# [3] = Solubility of AM-2-19-FB in D5W/DSG-PEG2000; settings: aqueous with cosolvent or surfactant or cyclodextrin
# [4] = ratio 1:0.1, final concentration AM-2-19 0.09 mg/mL
# [5] = ratio 1:0.1, final concentration AM-2-19 0.18 mg/mL
# [6] = ratio 1:0.1, final concentration AM-2-19 0.45 mg/mL
# [7] = ratio 1:1, final concentration AM-2-19 0.50 mg/mL
# [8] = ratio 1:1, final concentration AM-2-19 1.00 mg/mL
# [9] = ratio 1:1, final concentration AM-2-19 2.50 mg/mL
smiles,measurement,setting,value
CC1OC(OC2/C=C/C=C/C=C/C=C/C=C/C=C/C=C/[C@H](C)[C@@H](O)[C@@H](C)[C@H](C)OC(=O)C[C@H](O)C[C@H](O)CC[C@@H](O)[C@H](O)C[C@H](O)C[C@]3(O)C[C@H](O)[C@@H](C(=O)NC(CO)CO)C(C2)O3)C(O)C(N)C1O (stereo partly drawn) [AM-2-19],solution stability,[1],unstable even over the course of hours; also recorded: lacks solution stability
same,Compatibility,[2]; [4],compatible
same,Precipitate/Pellet or Coagulation Observed,[2]; [4],None
same,Compatibility,[2]; [5],compatible
same,Precipitate/Pellet or Coagulation Observed,[2]; [5],None
same,Compatibility,[2]; [6],Not compatible
same,Precipitate/Pellet or Coagulation Observed,[2]; [6],Pellet (Very Light)
same,Compatibility,[2]; [7],Not compatible
same,Precipitate/Pellet or Coagulation Observed,[2]; [7],Pellet (Light)
same,Compatibility,[2]; [8],Not compatible
same,Precipitate/Pellet or Coagulation Observed,[2]; [8],Pellet (Moderate)
same,Compatibility,[2]; [9],Not compatible
same,Precipitate/Pellet or Coagulation Observed,[2]; [9],Pellet (Severe)
same,solubility,[3]; in D5W/DSG-PEG2000 (1:3 molar ratio) without the acetate buffer,~100 µg/mL
same,solubility,[3]; in D5W/DSG-PEG2000 with acetate buffer,> 8000 µg/mL
